Test results from patent US11286268B1, “EIF4E-inhibiting compounds and methods” (EFFECTOR THERAPEUTICS, INC., priority 2019, dated 2022).
Where two headings read alike, the source gives them in different places.

Target: recombinant eIF4E (Homo sapiens (Human), UniProt P06730)
Experiment: Fluorescence polarization competition assay for eIF4E binding potency
Method in brief: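 Competition of test compound against 20 nM EDA-m^7GDP-ATTO-550 for 75 nM recombinant eIF4E, pre-incubated 5 min, in 20 mM Tris pH 7.5, 100 mM NaCl, 1 mM DTT, 0.02% Tween-20, 1% DMSO. Equilibrated 30 min at room temperature, dark; fluorescence polarization read. IC50 from 8-point, 3-fold dilution series.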

[1] = fluorescence polarization competition, 75 nM recombinant eIF4E, 20 nM EDA-m7GDP-ATTO-550, IC50 class, read-out: elF4E FP
[2] = inhibition of eIF4E/EDA-m7GDP-ATTO-550 binding by 50%, Table 4B calculated values, read-out: IC50

Chain of recombinant eIF4E (P06730 whole entry): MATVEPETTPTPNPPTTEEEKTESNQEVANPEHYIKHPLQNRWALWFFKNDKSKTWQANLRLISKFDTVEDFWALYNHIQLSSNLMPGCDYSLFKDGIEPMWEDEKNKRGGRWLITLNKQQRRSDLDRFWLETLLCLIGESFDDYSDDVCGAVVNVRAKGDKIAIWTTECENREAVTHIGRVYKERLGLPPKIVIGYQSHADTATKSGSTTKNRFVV

IC50 [1] [nM]	IC50 [2] [nM]	SMILES
< 50	10.7	Cc1nc2cnc(N3CC4(C3)CN(C3CC3)C4)c(C#N)c2c(=O)n1CC#Cc1ccc(Cl)cc1-c1ccnc2c(C(=O)O)csc12 [compound 822]
< 50	11.5	Cc1nc2cnc(N3CC4(C3)CN(C(C)(C)C(F)F)C4)c(C#N)c2c(=O)n1CCOc1ccc(Cl)cc1-c1ccnc2c(C(=O)O)csc12 [compound 823]
< 50	13.6	Cc1nc2cnc(N3CCN(CC(F)F)C4CC43)c(C#N)c2c(=O)n1CCOc1ccc(Cl)cc1-c1ccnc2c(C(=O)O)csc12 (centres unmarked) [compound 824]
< 50	14.3	Cc1nc2cnc(N3CC4(C3)CN(C3(CF)CC3)C4)c(C#N)c2c(=O)n1CCOc1ccc(Cl)cc1-c1ccnc2c(C(=O)O)csc12 [compound 825]
< 50	5.72	Cc1nc2cnc(N(C)C3CC4(C3)CN(CC(F)(F)F)C4)c(C#N)c2c(=O)n1CC#Cc1ccc(Cl)cc1-c1ccnc2c(C(=O)O)csc12 [compound 827]
< 50	5.72	Cc1nc2cnc(N(C)C3CC4(C3)CN(C(C)(C)CF)C4)c(C#N)c2c(=O)n1CC#Cc1ccc(Cl)cc1-c1ccnc2c(C(=O)O)csc12 [compound 828]
< 50	4.53	Cc1nc2cnc(N3CC4(CC(N(C)C5CC5)C4)C3)c(C#N)c2c(=O)n1CCOc1ccc(Cl)cc1-c1ccnc2c(C(=O)O)csc12 [compound 829]
< 50	12.8	Cc1nc2cnc(N3CC4(CC(N(C)C5CC5)C4)C3)c(C#N)c2c(=O)n1CC#Cc1ccc(Cl)cc1-c1ccnc2c(C(=O)O)csc12 [compound 830]
< 50	12.3	Cc1cc(-c2cc(Cl)ccc2OCCn2c(C)nc3cnc(C4(C)CC4)c(C#N)c3c2=O)c2scc(C(=O)O)c2n1 [compound 831]
50 to 1000	111	Cc1nc2cc(C(F)(F)F)c(N3CCN(C)CC3)c(C#N)c2c(=O)n1CCOc1ccc(Cl)cc1-c1ccccc1 [compound 833]
< 50	31.6	Cc1nc2cc(C(F)(F)F)c(N3CCN(C)CC3)c(C#N)c2c(=O)n1CCOc1ccc(Cl)cc1-c1ccnc2c(C(=O)O)csc12 [compound 834]
< 50	29.3	Cc1cc(-c2cc(Cl)ccc2OCCn2c(C)nc3cc(C(F)(F)F)c(N4CCN(C)CC4)c(C#N)c3c2=O)cc(C)n1 [compound 835]
< 50	2.33	Cc1cc(-c2cc(Cl)ccc2OCCn2c(C)nc3cc(C(F)(F)F)c(N4CCN(C)CC4)c(C#N)c3c2=O)c2sccc2n1 [compound 836]
< 50	13.4	Cc1nc2c(N3CCNCC(F)(F)C3)ncc(C#N)c2c(=O)n1CCOc1ccc(Cl)cc1-c1ccnc2c(C(=O)O)csc12 [compound 837]
< 50	38.7	Cc1nc2c(N3CCN(C)CC(F)(F)C3)ncc(C#N)c2c(=O)n1CCOc1ccc(Cl)cc1-c1ccnc2c(C(=O)O)csc12 [compound 838]
< 50	29.6	Cc1cc(-c2cc(Cl)ccc2OCCn2c(C)nc3cnc(C4(C(F)(F)F)CC4)c(C#N)c3c2=O)c2scc(C(=O)O)c2n1 [compound 839]
< 50	10.4	Cc1nc2cnc(N3CC4(CN(CC(F)(F)F)C4)C3)c(C#N)c2c(=O)n1CCOc1ccc(Cl)cc1-c1ccnc2c(C(=O)O)csc12 [compound 840]
50 to 1000	> 1000	Cc1nc2cncc(OCCN(C)C)c2c(=O)n1CCOc1ccc(Cl)cc1-c1ccnc2c(C(=O)O)csc12 [compound 841]
< 50	20.9	Cc1nc2cnc(N3CCN(C)CC3)c(C#N)c2c(=O)n1CC#Cc1ccc(Cl)cc1-c1ccnc2c(C(=O)O)csc12 [compound 842]
< 50	13.1	Cc1nc2c(N3CCN(CCCC(F)(F)F)CC3)ncc(C#N)c2c(=O)n1CCOc1ccc(Cl)cc1-c1ccnc2c(C(=O)O)csc12 [compound 843]
< 50	23.3	Cc1nc2cnc(N3CCN(CCCC(F)(F)F)CC3)c(C#N)c2c(=O)n1CCOc1ccc(Cl)cc1-c1ccnc2c(C(=O)O)csc12 [compound 844]
< 50	12.7	Cc1nc2cnc(N3CCN(C(C)(C)CC(F)(F)F)CC3)c(C#N)c2c(=O)n1CCOc1ccc(Cl)cc1-c1ccnc2c(C(=O)O)csc12 [compound 845]
< 50	37.9	Cc1cc(-c2cc(Cl)ccc2OCCn2c(C)nc3cnc(OC4CN(C)C4)c(C#N)c3c2=O)c2sc(C)c(C(=O)O)c2n1 [compound 846]
< 50	44	Cc1ncc(F)cc1-c1c(C(F)(F)F)cc2nc(C)n(CCOc3ccc(Cl)cc3-c3ccnc4c(C(=O)O)csc34)c(=O)c2c1C#N [compound 847]

IC50 [1] [nM]	IC50 [2] [nM]	SMILES
< 50	26.9	Cc1cc(-c2cc(Cl)ccc2OCCn2c(C)nc3cnc(N(C)C4CCN(C)CC4)c(C#N)c3c2=O)c2sc(C)c(C(=O)O)c2n1 [compound 848]
< 50	14.5	Cc1cc(-c2cc(Cl)ccc2OCCn2c(C)nc3nc(C(F)(F)F)c(N4CCN(C)CC4)cc3c2=O)c2scc(C(=O)O)c2n1 [compound 849]
< 50	17.7	CCc1nc(C)c2nc(C)n(CCOc3ccc(Cl)cc3-c3cc(C)nc4c(C(=O)O)csc34)c(=O)c2c1C#N [compound 850]
< 50	6.02	CCc1nc(C)c2nc(C)n(CCOc3ccc(Cl)cc3-c3ccnc4c(C(=O)O)csc34)c(=O)c2c1C#N [compound 851]
< 50	21.4	Cc1nc2cc(C(F)(F)F)c(N3CCN(CCO)CC3)c(C#N)c2c(=O)n1CCOc1ccc(Cl)cc1-c1ccnc2ccsc12 [compound 852]
< 50	31.9	Cc1nc2cc(C(F)(F)F)c(OCCN3CCNCC3)c(C#N)c2c(=O)n1CCOc1ccc(Cl)cc1-c1ccnc2ccsc12 [compound 853]
< 50	11.9	Cc1nc2cnc(N(C)C3CCN(C)CC3)c(C#N)c2c(=O)n1CCOc1ccc(Cl)cc1-c1ccnc2c(C(=O)O)csc12 [compound 854]
< 50	4.77	Cc1nc2cc(C(F)(F)F)c(N3CCNCC3)c(C#N)c2c(=O)n1CCOc1ccc(Cl)cc1-c1ccnc2ccsc12 [compound 855]
< 50	13.7	Cc1cc(-c2cc(Cl)ccc2C#CCn2c(C)nc3cc(C(F)(F)F)c(N4CCN(CCO)CC4)c(C#N)c3c2=O)c2scc(C(=O)O)c2n1 [compound 856]
< 50	7.28	Cc1nc2cc(C(F)(F)F)c(CCN(C)C)cc2c(=O)n1CCOc1ccc(Cl)cc1-c1ccnc2c(C(=O)O)csc12 [compound 858]
< 50	5.59	Cc1nc2cc(C(F)(F)F)c(N3CCN(CCO)CC3)c(C#N)c2c(=O)n1CC#Cc1ccc(Cl)cc1-c1ccnc2c(C(=O)O)csc12 [compound 859]
< 50	10.3	Cc1nc2cnc(N3CCN(CC(F)(F)F)CC3)c(C#N)c2c(=O)n1CC#Cc1ccc(Cl)cc1-c1ccnc2c(C(=O)O)csc12 [compound 860]
< 50	24.6	Cc1nc2c(N(C)C3CCN(CC(F)(F)F)CC3)ncc(C#N)c2c(=O)n1CCOc1ccc(Cl)cc1-c1ccnc2c(C(=O)O)csc12 [compound 861]
< 50	20.9	Cc1nc2c(N(C)C3CCN(C)CC3F)ncc(C#N)c2c(=O)n1CCOc1ccc(Cl)cc1-c1ccnc2c(C(=O)O)csc12 (centres unmarked) [compound 862]
< 50	47.9	Cc1nc2c(N(C)C3CCN(C)C(C(F)F)C3)ncc(C#N)c2c(=O)n1CCOc1ccc(Cl)cc1-c1ccnc2c(C(=O)O)csc12 (centres unmarked) [compound 864]
< 50	28.4	Cc1nc2cnc(N(C)C3CCN(CC(F)(F)F)CC3)c(C#N)c2c(=O)n1CCOc1ccc(Cl)cc1-c1ccnc2c(C(=O)O)csc12 [compound 865]
< 50	16.8	Cc1nc2cnc(N(C)C3CCN(C)C(C(F)F)C3)c(C#N)c2c(=O)n1CCOc1ccc(Cl)cc1-c1ccnc2c(C(=O)O)csc12 (centres unmarked) [compound 866]
< 50	6.61	Cc1cc(-c2cc(Cl)ccc2OCCn2c(C)nc3cc(C(F)(F)F)c(N4CCS(=O)(=O)CC4)c(C#N)c3c2=O)c2scc(C(=O)O)c2n1 [compound 867]
< 50	25.4	Cc1cc(-c2cc(Cl)ccc2OCCn2c(C)nc3cnc(OC4CNC4)c(C#N)c3c2=O)c2sc(C)c(C(=O)O)c2n1 [compound 869]
< 50		Cc1cc(-c2cc(Cl)ccc2OCCn2c(C)nc3c(C)nc(-c4c(C)cccc4F)c(C#N)c3c2=O)c2scc(C(=O)O)c2n1 [compound 871]
< 50		Cc1cc(-c2cc(Cl)ccc2OCCn2c(C)nc3c(C)nc(-c4c(C)cccc4C)c(C#N)c3c2=O)c2scc(C(=O)O)c2n1 [compound 872]
< 50	15.7	Cc1cc(-c2ncc3nc(C)n(CCOc4ccc(Cl)cc4-c4cc(C)nc5c(C(=O)O)csc45)c(=O)c3c2C#N)cc(C)n1 [compound 873]
< 50	41.5	Cc1cc(-c2cc(Cl)ccc2OCCn2c(C)nc3c(C)nc(-c4cnc(N)cc4F)c(C#N)c3c2=O)c2scc(C(=O)O)c2n1 [compound 874]

SMILES	IC50 [1] [nM]	IC50 [2] [nM]
Cc1nc2c(N3C4CCC3CN(C)C4)ncc(C#N)c2c(=O)n1CCOc1ccc(Cl)cc1-c1ccnc2c(C(=O)O)csc12 [compound 857]	< 50	4.62
Cc1nc2c(N(C)C3CC4CCC(C3)N4C)ncc(C#N)c2c(=O)n1CCOc1ccc(Cl)cc1-c1ccnc2c(C(=O)O)csc12 (centres unmarked) [compound 863]	< 50	45.5
Cc1cc(-c2cc(Cl)ccc2OCCn2c(C)nc3cnc(N4CC5CCC(C4)N5C)c(C#N)c3c2=O)c2sc(C)c(C(=O)O)c2n1 [compound 868]	< 50	17.2
